For series [1] the following is noted: rats; cited from earlier work.
A further series concerns P. aeruginosa. The following applies: literature reports (Musk et al.; Kim et al.); cited from earlier work.
The test system of series [2] is Streptococcus pyogenes, Streptococcus mitis, Staphylococcus epidermidis, and E. coli. The following applies: 10 wt % of hexylene glycol, in vitro; cited from earlier work.
For another series, the system named is S. aureus. The following applies: Example 8, FIG. 8A; solubilized in DW. As for the experimental part: In Example 8, different pathogens were tested for MIC (Minimum Inhibitory Concentration) with formulations that comprise combinations of LAE and SL. […] In FIGS. 8A and 8B the active ingredients LAE and SL were solubilized in DW as indicated and were tested. FIG. 8A reports MIC combination of LAE and SL tested on Candida albicans fungi in duplicate and for gram positive S. aureus. FIG. 8B reports MIC on combinations of LAE/SL exposed to S. epidermidis.

The subject of a further series is S. epidermidis. Put plainly: MIC of LAE/SL mixtures (FIG. 8B). The following applies: Example 8, FIG. 8B; solubilized in DW. Format: cell-based.
Another series relates to Candida albicans. Put plainly: MIC of LAE/SL mixtures (FIG. 7, FIG. 8A). The following applies: Example 8, FIG. 8A; solubilized in DW. It is filed as cell-based. The method, then:
MIC values of various mixtures of N^α-lauroyl arginine ethyl ester HCl salt and sucrose monolaurate in preventing the growth of Candida alibicans were determined. […] In comparing ratios of wt % of SL to wt % of LAE, ratios from 2:1 to 1:2 show enhancement compared to 100 wt % LAE.

Counter-ions that a name gives are not always drawn.

Experimental for S. epidermidis: In Example 8, different pathogens were tested for MIC (Minimum Inhibitory Concentration) with formulations that comprise combinations of LAE and SL. […] In FIGS. 8A and 8B the active ingredients LAE and SL were solubilized in DW as indicated and were tested. […] FIG. 8B reports MIC on combinations of LAE/SL exposed to S. epidermidis.

On to `CCOC(=O)CC(O)(CC(=O)OCC)C(=O)OCC` [triethyl citrate], for which the “oral LD50” value in series [1] is 7.0 cc/kg. Regarding “Ferric ammonium citrate [reference compound]”, in the series with P. aeruginosa, the “biofilm formation, result in words” value is reported as “inhibited biofilm formation in a dose-dependent manner”. As to `CC(O)CC(C)(C)O` (stereo not shown) [hexylene glycol], the “killing power, comparison” value in series [2] was “equivalent to 30 wt % of 1,3 butylene glycol or propylene glycol”. As for `CCCCCCCCCCCC(=O)N[C@@H](CCCNC(=N)N)C(=O)OCC` [LAE, N^α-lauroyl-L-arginine-ethyl ester], in the series on P. aeruginosa, the “biofilm formation, result in words” value was “inhibited biofilm formation”. For sucrose laurate [SL], the “MIC, result in words” value in the series on S. aureus, with S. epidermidis and with Candida albicans was “much higher MIC values than LAE or combinations of LAE/SL” each time.

Values taken from patent US12035718B2, “Biofilm penetrating compositions and methods” (Nevada Naturals Inc., priority 2017, dated 2024).
